In PMC3004914, “Classification of Drugs Based on Properties of Sodium Channel Inhibition: A Comparative Automated Patch-Clamp Study” (PLoS ONE, 2010):
Values joined by “and” are separate entries in the source; they are usually repeats but may differ in a detail not shown here. Equal values may be shown once. Read-outs that look alike come from different tables or passages of the source. Blank lines part the entries; values can stand above or below the compound they belong to.

What was measured:
[1] = target: T1, rNav1.2 sodium channels (HEK-293 cells) (Rattus norvegicus, UniProt P04775); assay: steady-state inactivation protocol (availability curves), QPatch automated patch-clamp; type: cell-based
Outline: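 HEK-293 cells stably expressing rat Nav1.2, recorded by automated patch clamp in extracellular solution pH 7.3 containing CdCl2 and TEA. Availability measured with 400 ms pre-pulses from −150 to −30 mV, then a 10 ms test pulse to −10 mV. Kr, Ki (four-state model) and Kr/Ki state-dependence derived from inhibition and ΔV1/2.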

[2] = target: T1, rNav1.2 sodium channels (HEK-293 cells); assay: 5 Hz train protocol, QPatch automated patch-clamp; type: cell-based; conditions: for potency estimated from few doses: −90 mV, read-out: IC50; for potency: in words;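 for UD (use-dependence of the inhibition): UD = (A3/A4)/(A1/A2) as ratios of peak amplitudes from Figure 1A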
Outline: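 rNav1.2 in stable HEK-293 cells, QPatch whole-cell; 5 Hz trains of five pulses from −90 to −10 mV, repeated every 20 s; 10 control trains, 10 with drug, then washout. Inhibition of peak current at a single concentration gave IC50; reversibility, use-dependence and τoff also derived.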

[3] = human plasma, cited from earlier work
[4] = target: sodium channels; conditions: averaged literature data, cited from earlier work; for Ki: read-out: Ki−Lit; for Kd: read-out: Kr−Lit
[5] = HEK293, 30 µM, read-out: Inh (inhibited fraction) at holding potential −150 mV
[6] = HEK293, 100 µM, read-out: Inh (inhibited fraction) at holding potential −150 mV
[7] = 30 μM, 500 s assigned where irreversible
[8] = 30 μM, Rev = A5/A1 after washout
[9] = HEK293, 30 μM, −90 mV holding potential, 5 Hz train, read-out: Inh (inhibited fraction)
[10] = HEK293, calculated from Inh at single concentration 30 μM, 5 Hz train

T1 sequence (P04775 whole entry): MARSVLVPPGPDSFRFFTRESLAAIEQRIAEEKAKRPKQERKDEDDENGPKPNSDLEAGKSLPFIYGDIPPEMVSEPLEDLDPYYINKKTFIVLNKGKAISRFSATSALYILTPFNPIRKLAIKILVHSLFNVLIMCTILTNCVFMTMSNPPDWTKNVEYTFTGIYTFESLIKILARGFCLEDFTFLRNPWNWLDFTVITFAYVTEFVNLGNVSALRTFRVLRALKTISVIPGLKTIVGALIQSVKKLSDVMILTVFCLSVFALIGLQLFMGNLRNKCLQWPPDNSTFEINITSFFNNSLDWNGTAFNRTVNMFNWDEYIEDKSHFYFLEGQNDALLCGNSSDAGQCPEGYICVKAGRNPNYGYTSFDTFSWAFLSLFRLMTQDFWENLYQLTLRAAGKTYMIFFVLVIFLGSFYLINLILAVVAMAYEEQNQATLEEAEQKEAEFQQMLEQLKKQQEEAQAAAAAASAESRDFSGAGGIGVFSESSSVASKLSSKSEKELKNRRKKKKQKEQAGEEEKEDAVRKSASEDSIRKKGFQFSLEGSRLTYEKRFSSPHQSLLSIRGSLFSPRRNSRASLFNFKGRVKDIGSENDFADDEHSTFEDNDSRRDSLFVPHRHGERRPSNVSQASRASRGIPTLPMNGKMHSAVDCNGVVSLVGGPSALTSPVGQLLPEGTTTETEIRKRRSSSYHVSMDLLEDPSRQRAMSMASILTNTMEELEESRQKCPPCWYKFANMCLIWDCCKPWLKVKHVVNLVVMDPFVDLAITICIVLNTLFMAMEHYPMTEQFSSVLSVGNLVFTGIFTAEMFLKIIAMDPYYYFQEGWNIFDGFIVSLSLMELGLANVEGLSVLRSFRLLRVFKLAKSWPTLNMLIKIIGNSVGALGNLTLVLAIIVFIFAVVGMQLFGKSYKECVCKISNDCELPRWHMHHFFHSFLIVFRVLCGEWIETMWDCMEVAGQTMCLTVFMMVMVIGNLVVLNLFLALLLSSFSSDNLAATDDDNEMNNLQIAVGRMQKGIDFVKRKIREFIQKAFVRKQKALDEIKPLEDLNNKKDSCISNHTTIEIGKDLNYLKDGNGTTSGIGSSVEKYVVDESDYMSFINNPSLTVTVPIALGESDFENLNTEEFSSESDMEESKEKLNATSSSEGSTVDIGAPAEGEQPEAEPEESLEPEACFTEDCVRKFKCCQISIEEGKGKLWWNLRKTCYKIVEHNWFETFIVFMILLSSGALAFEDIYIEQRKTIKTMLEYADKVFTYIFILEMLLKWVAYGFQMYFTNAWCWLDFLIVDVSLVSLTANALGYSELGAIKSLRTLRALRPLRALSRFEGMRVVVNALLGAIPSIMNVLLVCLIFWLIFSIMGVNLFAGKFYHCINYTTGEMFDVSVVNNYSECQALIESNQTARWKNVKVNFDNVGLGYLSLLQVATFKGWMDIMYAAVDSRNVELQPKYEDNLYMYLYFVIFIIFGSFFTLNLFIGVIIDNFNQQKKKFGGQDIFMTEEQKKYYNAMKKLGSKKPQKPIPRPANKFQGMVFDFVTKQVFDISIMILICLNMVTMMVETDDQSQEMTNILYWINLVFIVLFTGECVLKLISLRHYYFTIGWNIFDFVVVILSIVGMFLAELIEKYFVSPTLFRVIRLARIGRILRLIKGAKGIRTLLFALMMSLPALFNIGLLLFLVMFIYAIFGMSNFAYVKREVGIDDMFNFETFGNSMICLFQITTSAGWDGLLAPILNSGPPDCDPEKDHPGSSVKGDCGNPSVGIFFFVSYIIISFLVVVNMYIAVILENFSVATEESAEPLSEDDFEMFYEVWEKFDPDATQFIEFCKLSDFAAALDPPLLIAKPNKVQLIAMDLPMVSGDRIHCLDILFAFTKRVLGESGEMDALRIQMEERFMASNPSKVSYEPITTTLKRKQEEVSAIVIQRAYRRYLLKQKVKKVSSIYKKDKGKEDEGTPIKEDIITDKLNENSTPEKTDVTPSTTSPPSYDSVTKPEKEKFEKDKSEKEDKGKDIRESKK

ΔV1/2 (shift of availability curve) ([1]; 10 µM): −11.3 mV | ΔV1/2 (shift of availability curve) ([1]; 30 μM): −11.2 mV | ΔV1/2 (shift of availability curve) ([1]; 100 μM): −18 mV | inhibition at 10 µM ([1]; HEK293, 10 µM, read-out: Inh (inhibited fraction) at holding potential −150 mV): 8% | inhibition at 30 µM [1, 5]: 20% | inhibition at 100 µM [1, 6]: 59% | Ki ([1]; arithmetic mean, 10 µM, read-out: Ki-Kapp arith): 5.17 µM | Ki ([1]; arithmetic mean, 10 µM, read-out: Ki-ΔV1/2 arith): 1.97 µM | Kd ([1]; arithmetic mean, 10 µM, read-out: Kr arith): 155 µM | Ki ([1]; arithmetic mean, 30 µM, read-out: Ki-Kapp arith): 5.13 µM | Ki ([1]; arithmetic mean, 30 µM, read-out: Ki-ΔV1/2 arith): 3.78 µM | Kd ([1]; arithmetic mean, 30 µM, read-out: Kr arith): 128 µM | Ki ([1]; arithmetic mean, 100 µM, read-out: Ki-Kapp arith): 2.08 µM | Ki ([1]; arithmetic mean, 100 µM, read-out: Ki-ΔV1/2 arith): 1.87 µM | Kd ([1]; arithmetic mean, 100 µM, read-out: Kr arith): 72.4 µM | Kd ([1]; geometric mean, from Inh at −150 mV, 10 µM, read-out: Kr (resting state affinity)): 134 µM | Kd ([1]; geometric mean, from Inh at −150 mV, 30 µM, read-out: Kr (resting state affinity)): 125 µM | Kd ([1]; geometric mean, from Inh at −150 mV, 100 µM, read-out: Kr (resting state affinity)): 69.6 µM | Ki ([1]; geometric mean, from apparent affinity, 10 µM, read-out: Ki−Kapp (inactivated state affinity)): 3.34 µM | Ki ([1]; geometric mean, from apparent affinity, 30 µM, read-out: Ki−Kapp (inactivated state affinity)): 4.92 µM | Ki ([1]; geometric mean, from apparent affinity, 100 µM, read-out: Ki−Kapp (inactivated state affinity)): 2 µM | Ki ([1]; geometric mean, from shift of availability curve, 10 µM, read-out: Ki−ΔV1/2 (inactivated state affinity)): 1.45 µM | Ki ([1]; geometric mean, from shift of availability curve, 30 µM, read-out: Ki−ΔV1/2 (inactivated state affinity)): 3.69 µM | Ki ([1]; geometric mean, from shift of availability curve, 100 µM, read-out: Ki−ΔV1/2 (inactivated state affinity)): 1.65 µM | τon ([2]; 30 μM): 10.54 s | UD (use-dependence of the inhibition) ([2]; 30 μM, 5 Hz train): 1.66 | τoff [2, 7]: 16.95 s | Rev (reversibility) [2, 8]: 0.50 | inhibition at 30 µM [2, 9]: 56% | potency estimated from few doses [2, 10]: 23.5 µM
Compound: CN(C)CCC=C1c2ccccc2CCc2ccccc21 [AMI, Amitriptyline]
plasma conc. ([3]; as printed in each cell): 0.064 [44] µg/ml | plasma conc. ([3]; as printed in the µg/ml cell): 0.204 µM | Ki [4]: 0.52 µM | Kd [4]: 38.1 µM

ΔV1/2 (shift of availability curve) ([1]; 1 µM): −4.39 mV | inhibition at 1 µM ([1]; HEK293, 1 µM, read-out: Inh (inhibited fraction) at holding potential −150 mV): 2% | Ki ([1]; arithmetic mean, 1 µM, read-out: Ki-Kapp arith): 0.53 µM | Ki ([1]; arithmetic mean, 1 µM, read-out: Ki-ΔV1/2 arith): 0.96 µM | Kd ([1]; arithmetic mean, 1 µM, read-out: Kr arith): 63.2 µM | Kd ([1]; geometric mean, from Inh at −150 mV, 1 µM, read-out: Kr (resting state affinity)): 55.8 µM | Ki ([1]; geometric mean, from apparent affinity, 1 µM, read-out: Ki−Kapp (inactivated state affinity)): 0.5 µM | Ki ([1]; geometric mean, from shift of availability curve, 1 µM, read-out: Ki−ΔV1/2 (inactivated state affinity)): 0.91 µM and 0.92 µM | onset and offset kinetics (time constants) [2]: very slow kinetics | τon ([2]; 30 μM): 96.5 s | UD (use-dependence of the inhibition) ([2]; 30 μM, 5 Hz train): 1.02 | τoff [2, 7]: 500 s | Rev (reversibility) [2, 8]: 0.01 | use-dependence (UD) ([2]; 5 Hz train): no use-dependence | reversibility ([2]; 200 s of washout): apparent irreversibility | inhibition at 30 µM [2, 9]: 78% | potency estimated from few doses [2, 10]: 5.29 µM | potency [2]: high potency
Compound: Cc1ccc(-c2nc(C)c(CN3CCN(C(c4ccccc4)c4ccccc4)CC3)[nH]2)cc1 [LIF, Lifarizine]
plasma conc. ([3]; as printed in each cell): 0.02 [59] µg/ml | plasma conc. ([3]; as printed in the µg/ml cell): 0.046 µM | Ki [4]: 0.19 µM | Kd [4]: 10.2 µM

Compound: Nc1nc2ccc(OC(F)(F)F)cc2s1 [RIL, Riluzole]
inhibition at 30 µM [1, 5]: 8% | inhibition at 100 µM [1, 6]: 22% | Rev (reversibility) [2]: 0.52 | τon ([2]; 30 μM): 3.9 s | UD (use-dependence of the inhibition) ([2]; 30 μM, 5 Hz train): 0.95 | τoff [2, 7]: 17.6 s | use-dependence (UD) ([2]; 5 Hz train): no use-dependence | inhibition at 30 µM [2, 9]: 27% | potency estimated from few doses [2, 10]: 81 µM | plasma conc. ([3]; as printed in each cell): 0.17 [44] µg/ml | plasma conc. ([3]; as printed in the µg/ml cell): 0.739 µM | Ki [4]: 0.49 µM | Kd [4]: 62.4 µM

ΔV1/2 (shift of availability curve) ([1]; 300 μM): −11.4 mV | inhibition at 300 µM ([1]; HEK293, 300 µM, read-out: Inh (inhibited fraction) at holding potential −150 mV): 21% | Ki ([1]; arithmetic mean, 300 µM, read-out: Ki-Kapp arith): 26.9 µM | Ki ([1]; arithmetic mean, 300 µM, read-out: Ki-ΔV1/2 arith): 40.1 µM | Kd ([1]; arithmetic mean, 300 µM, read-out: Kr arith): 1180 µM | Kd ([1]; geometric mean, from Inh at −150 mV, 300 µM, read-out: Kr (resting state affinity)): 1170 µM | Ki ([1]; geometric mean, from apparent affinity, 300 µM, read-out: Ki−Kapp (inactivated state affinity)): 26.4 µM | Ki ([1]; geometric mean, from shift of availability curve, 300 µM, read-out: Ki−ΔV1/2 (inactivated state affinity)): 39.9 µM | τoff ([2]; 300 μM): 10.01 s | τon ([2]; 300 μM, 3 s assigned where too short to be resolved): 3 s | UD (use-dependence of the inhibition) ([2]; 300 μM, 5 Hz train): 0.98 | Rev (reversibility) ([2]; 300 μM, Rev = A5/A1 after washout): 0.87 | inhibition at 300 µM ([2]; HEK293, 300 μM, −90 mV holding potential, 5 Hz train, read-out: Inh (inhibited fraction)): 29% | potency estimated from few doses ([2]; HEK293, calculated from Inh at single concentration 300 μM, 5 Hz train): 718 µM | potency [2]: among the least potent SCIs
Compound: NC(=O)N1c2ccccc2C=Cc2ccccc21 [CBZ, Carbamazepine]
plasma conc. ([3]; as printed in each cell): 9.3 [44] µg/ml | plasma conc. ([3]; as printed in the µg/ml cell): 39.362 µM | Ki [4]: 21.8 µM | Kd [4]: 946 µM
